Laboratory results: patent publication US20230111910A1, “PD-1/PD-L1 INHIBITOR, PREPARATION METHOD THEREFOR, AND USE THEREOF” (SHANGHAI SYNERGY PHARMACEUTICAL SCIENCES CO., LTD., priority 2020, published 2023)
Counter-ions that a name gives are not always drawn. Like-named read-outs stand apart in the source and are kept apart here.

Experiment: Pharmacokinetic experiment in rats, LC/MS/MS
Assay type: in vivo
Conditions: male, rat, whole blood, SD rats; for AUC: read-out: Area under the curve (AUC, ng/mL.h); for half-life: read-out: Half life (T1/2, h) (converted); for bioavailability: p.o. 10 mg/kg vs i.v. 2 mg/kg, read-out: Bioavailability (F%); for Cmax: read-out: Blood concentration (Cmax, ng/mL)
Experimental: Taking SD rats as an example, the drug concentrations in the plasma of rats at different times after i.g. and i.v. administration of compounds of Examples 1, 5, 6, 8, 12, 13, 15, 18, 19, 22, 25, 27 and 29, respectively, were determined by the liquid chromatography-tandem mass spectrometry (LS/MS/MS) method, and the relevant pharmacokinetic parameters were calculated to evaluate the pharmacokinetic properties of example compounds of the present invention in rats.
Healthy adult SD rats, SPF grade, male, purchased from Sippe-Bk Lab Animal Co., Ltd., Shanghai, license number SCXK (Shanghai) 2018-0006, animal certificate number: 20180006006321.
A certain amount of compound was weighed, dissolved in 5% dimethyl sulfoxide (DMSO), subjected to vortex and sonication, added with 0.5% sodium carboxymethyl cellulose (CMC-Na), and sonicated, to prepare a homogeneous solution.
Before administration and 5 min, 15 min, 0.5 h, 1 h, 2 h, 4 h, 6 h, 8 h and 24 h after administration, orbital blood was collected, 0.2 milliliters (mL) of blood being collected each time, and placed in an anticoagulant tube, mixed well, and stored in a −20° C. refrigerator for later use.
The content of the compound in rat whole blood was determined by liquid chromatography-tandem mass spectrometry (LS/MS/MS).
The pharmacokinetic parameters of the compounds after administration were calculated using the non-compartmental model of WinNonLin5.3 software.

SMILES	AUC (iv, i.v., 2 mg/kg) [ng·h/mL]	half-life (iv, i.v., 2 mg/kg) [h]	bioavailability (po) [%]	AUC (po, p.o. (i.g.), 10 mg/kg) [ng·h/mL]	Cmax (po, p.o. (i.g.), 10 mg/kg) [ng/mL]
Cc1c(NC(=O)c2nc3c(s2)CNCC3)cccc1-c1cccc(-c2nc3cc(CN4CC[C@@H](C(=O)O)C4)cnc3o2)c1C [Example 18, (R)-1-((2-(2,2′-dimethyl-3′-(4,5,6,7-tetrahydrothiazolo[5,4-c]pyridine-2-carboxamido)-[1,1′-biphenyl]-3-yl)oxazolo[5,4-b]pyridin-6-yl)methyl)pyrrolidine-3-carboxylic acid trifluoroacetate]	578	2.42	53	1530	365
Cc1c(NC(=O)c2nc3c(s2)CN(C[C@H](C)O)CC3)cccc1-c1cccc(-c2nc3cc(CN4CC[C@@H](C(=O)O)C4)cnc3o2)c1C [Example 22, (R)-1-((2-(3′-(5-((S)-2-hydroxypropyl)-4,5,6,7-tetrahydrothiazolo[5,4-c]pyridine-2-carboxamido)-2,2′-dimethyl-[1,1′-biphenyl]-3-yl)oxazolo[5,4-b]pyridin-6-yl)methyl)pyrrolidine-3-carboxylic acid]	578	1.46	51	1470	488
Cc1c(NC(=O)c2nc3c(s2)CN(C)CC3)cncc1-c1cccc(-c2nc3cc(CN4CC[C@@H](C(=O)O)C4)cc(Cl)c3o2)c1C [Example 8, (R)-1-((7-chloro-2-(2-methyl-3-(4-methyl-5-(5-methyl-4,5,6,7-tetrahydrothiazolo[5,4-c]pyridine-2-carboxamido)pyridin-3-yl)phenyl)benzo[d]oxazol-5-yl)methyl)pyrrolidine-3-carboxylic acid]	601	1.56	55	1650	402
Cc1c(NC(=O)c2nc3c(s2)CN(C)CC3)cncc1-c1cccc(NC(=O)c2nc3c(n2C)CCN(C)C3)c1C [Example 5, N-(5-(3-(1,5-dimethyl-4,5,6,7-tetrahydro-1H-imidazo[4,5-c]pyridine-2-carboxamido)-2-methylphenyl)-4-methylpyridin-3-yl)-5-methyl-4,5,6,7-tetrahydrothiazolo[5,4-c]pyridine-2-carboxamide]	612	2.5	68	2080	432
Cc1c(NC(=O)c2nc(CNCCO)cn2C)cccc1-c1cccc(NC(=O)c2ccc(CNCCO)cn2)c1Cl [Example 1, N-(2-chloro-3′-(4-(((2-hydroxyethyl)amino)methyl)-1-methyl-1H-imidazole-2-carboxamido)-2′-methyl-[1,1′-biphenyl]-3-yl)-5-(((2-hydroxyethyl)amino)methyl)picolinamide]	596	2.05	56	1670	415
Cc1c(NC(=O)c2nc3c(s2)CN(C)CC3)cncc1-c1cccc(NC(=O)c2nc3c(n2C)CCN(CC(C)O)C3)c1C (centres unmarked) [Example 6, N-(5-(3-(5-(2-hydroxypropyl)-1-methyl-4,5,6,7-tetrahydro-1H-imidazo[4,5-c]pyridine-2-carboxamido)-2-methylphenyl)-4-methylpyridin-3-yl)-5-methyl-4,5,6,7-tetrahydrothiazolo[5,4-c]pyridine-2-carboxamide]	676	1.36	62	2100	389
Cc1c(NC(=O)c2nc3c(n2C)CCN(CC(C)O)C3)cccc1-c1cccc(-c2nc3cc(CN4CC[C@@H](C(=O)O)C4)ncc3o2)c1C (stereo partly drawn) [Example 29, (R)-1-((2-(3′-(5-(2-hydroxypropyl)-1-methyl-4,5,6,7-tetrahydro-1H-imidazo[4,5-c]pyridine-2-carboxamido)-2,2′-dimethyl-[1,1′-biphenyl]-3-yl)oxazolo[5,4-c]pyridin-6-yl)methyl)pyrrolidine-3-carboxylic acid]	617	2.14	48	1480	405
